# Results taken from BindingDB's records for doi:10.1016/s0960-894x(01)00395-x (Novo Nordisk, 2001).
# Target: Glucose-6-phosphatase catalytic subunit (Sus scrofa)
# Experiment: Compound was evaluated for inhibition of Glucose-6-Phosphatase from Triton X-100 disrupted pig liver microsomes.
row,IC50 [µM],Structure (SMILES)
1,2.4,Oc1ccc(/C=N/N(Cc2ccccc2)Cc2ccccc2)cc1 [4-(Dibenzyl-hydrazonomethyl)-phenol]
2,> 100,"COc1ccccc1/C=N/N(Cc1ccccc1)Cc1ccccc1 [N,N-Dibenzyl-N'-[1-(2-methoxy-phenyl)-meth-(E)-ylidene]-hydrazine]"
3,2,"Clc1ccc(/C=N/N(Cc2ccccc2)Cc2ccccc2)cc1Cl [N,N-Dibenzyl-N'-[1-(3,4-dichloro-phenyl)-meth-(E)-ylidene]-hydrazine]"
4,> 100,"Clc1cc(Cl)cc(/C=N/N(Cc2ccccc2)Cc2ccccc2)c1 [N,N-Dibenzyl-N'-[1-(3,5-dichloro-phenyl)-meth-(E)-ylidene]-hydrazine]"
5,0.24,"Clc1ccc(/C=N/N(Cc2ccccc2)Cc2ccccc2)cc1 [N,N-Dibenzyl-N'-[1-(4-chloro-phenyl)-meth-(E)-ylidene]-hydrazine]"
6,0.22,"COc1ccc(/C=N/N(Cc2ccccc2)Cc2ccccc2)cc1 [N,N-Dibenzyl-N'-[1-(4-methoxy-phenyl)-meth-(E)-ylidene]-hydrazine]"
7,0.17,"Clc1ccc(/C=N/N(Cc2ccccc2)Cc2ccccc2)s1 [N,N-Dibenzyl-N'-[1-(5-chloro-thiophen-2-yl)-meth-(E)-ylidene]-hydrazine]"
8,0.33,"CCc1ccc(/C=N/N(Cc2ccccc2)Cc2ccccc2)o1 [N,N-Dibenzyl-N'-[1-(5-ethyl-furan-2-yl)-meth-(E)-ylidene]-hydrazine]"
9,1.1,"C(=N\N(Cc1ccccc1)Cc1ccccc1)/c1ccco1 [N,N-Dibenzyl-N'-[1-furan-2-yl-meth-(E)-ylidene]-hydrazine]"
10,1.5,"C(=N\N(Cc1ccccc1)Cc1ccccc1)/c1ccccc1 [N,N-Dibenzyl-N'-[1-phenyl-meth-(E)-ylidene]-hydrazine]"
11,3.7,"C(=N\N(Cc1ccccc1)Cc1ccccc1)/c1cccnc1 [N,N-Dibenzyl-N'-[1-pyridin-3-yl-meth-(E)-ylidene]-hydrazine]"
12,1.5,"C(=N\N(Cc1ccccc1)Cc1ccccc1)/c1cccs1 [N,N-Dibenzyl-N'-[1-thiophen-2-yl-meth-(E)-ylidene]-hydrazine]"
13,> 50,"COc1ccc2c(c1)CCCC2=NN(Cc1ccccc1)Cc1ccccc1 [N,N-Dibenzyl-N'-[6-methoxy-3,4-dihydro-2H-naphthalen-(1E)-ylidene]-hydrazine]"
14,100,CN(C)c1ccc(/C=N/N(Cc2ccccc2)Cc2ccccc2)cc1 [[4-(Dibenzyl-hydrazonomethyl)-phenyl]-dimethyl-amine]
15,16,OCc1ccc(/C=N/N(Cc2ccccc2)Cc2ccccc2)o1 [[5-(Dibenzyl-hydrazonomethyl)-furan-2-yl]-methanol]
